According to US11746102B2, “Polymorphs of selinexor” (Karyopharm Therapeutics Inc., priority 2014, dated 2023):

Key:
Assay type in all cases: physicochemical
[1] = Stability of Form A on exposure to humidity/temperature
Method: A comprehensive polymorphism assessment of selinexor was performed in a range of different solvents, solvent mixtures and under a number of experimental conditions based on the solubility of selinexor. Three anhydrous polymorphs of selinexor were observed by XRPD investigation, designated Form A, Form B and Form C.

[2] = Competitive slurry experiment (Form A, Form C, seed of Form B); conditions: about 1:1 Form A and Form C with Form B seed; matured at 5, 25, 50° C. in ethyl acetate, 30% IPA:70% water, 30% ethanol:70% water; 72 hours and 1 week; in acetonitrile the solvate formed
Method: In a competitive slurry experiment, approximately 1:1 mixtures of Form A and Form C were prepared. The mixtures were then stirred with a seed of Form B (about 5% by weight of the mixture of Form A and Form C). The produced systems were matured at 5° C., 25° C. and 50° C. under stirring in acetonitrile, ethyl acetate, 30% IPA:70% water and 30% ethanol:70% water. The systems were analyzed by XRPD at two different time points: 72 hours and 1 week.
Form D was observed by maturation in acetonitrile. This experiment confirmed Form A as the stable form, compared to Form B and Form C, under the conditions investigated. The presence of acetonitrile led to solvate formation at all of the temperatures investigated.

[3] = Polymorphism studies (cooling, slow evaporation, maturation; XRPD); conditions: 8 days maturation RT/50° C., solids analysed by XRPD
Method: Samples found as clear solutions at −20° C. were placed for slow evaporation at RT using a 25-gauge syringe needle(s) in the septum of the vial. • The solid suspensions observed in 100 volumes of the relative solvent systems at the end of the solubility assessment were placed for 8 days maturation cycling between RT and 50° C. (cycling 4 hours at RT; 4 hours at 50° C.). After the maturation, the solids were recovered and the supernatants were placed for slow evaporation. All the solids obtained by these processes were analyzed by XRPD.

[4] = Particle size analysis (Malvern MS2000, volume-based); conditions: for d10: 10% of total particle volume no larger than this size, 0.1% lecithin in Isopar G dispersant; for d50: 50% of total particle volume no larger than this size; for d50 / d90 / D[4,3] Volume weighted mean: lecithin in Isopar G dispersant; for d90: 90% of total particle volume no larger than this size; for D[4,3] Volume weighted mean: in µm; for Characteristic of the particle size distribution: overlay of particle size distributions
Description: Particle size data was acquired using a Malvern Instruments MS2000 equipped with a Hydro2000 μP dispersion unit. Data was collected and analyzed using Mastersizer 2000 v 5.60 software, using volume-based measurements. NIST-traceable glass beads were used as the reference standard.
Details of the method conditions used to analyze particle size are listed below: • Sample refractive index: 1.596 • Sample absorption: 0.001 • Dispersant: 0.100 (w/v) Lecithin in Isopar G • Dispersant refractive index: 1.42 • Pump speed: 2100 rpm • Recirculation time: 2 minutes • Sample measurement time: 30 sec. • Background measurement time: 30 sec. • Model: general purpose • Sensitivity: normal • Particle shape: irregular.
One particle size measurement of each lot of selinexor described in Examples 1-6 was collected using the particle size method conditions described above. Table 4 provides sample information and particle size analysis data for the indicated lot of selinexor under the particle size method analysis conditions described above. FIGS. 5A-5P are particle size distribution graphs and show the particle size distribution of the sample corresponding to the indicated lot of selinexor under the particle size method analysis conditions described above.

[5] = Solubility assessment (visual) of selinexor in solvents and solvent mixtures; conditions: for Solubility: starting Form A

For `O=C(/C=C\n1cnc(-c2cc(C(F)(F)F)cc(C(F)(F)F)c2)n1)NNc1cnccn1` [Form A], the Physico-chemical stability ([1]; exposed for 4 weeks to 25° C./97% relative humidity (RH)) was “stable”, the Physico-chemical stability ([1]; exposed for 4 weeks to 40° C./75% RH) was “stable” and the “Relative stability of forms in competitive slurry” value [2] was “stable anhydrous form”. The “Stability of the form under solvent-based experimentation” value [3] was “stable in most of the conditions investigated”.
Compound `O=C(/C=C\n1cnc(-c2cc(C(F)(F)F)cc(C(F)(F)F)c2)n1)NNc1cnccn1` [Lot No. 1339-BS-142-1] has a d10 ([4]; listed as 1339-BS-142-1) of 4.978 μm, a d50 ([4]; listed as 1339-BS-142-1) of 11.969 μm and a d90 ([4]; listed as 1339-BS-142-1) of 28.331 μm. The “D[4,3] Volume weighted mean” value ([4]; listed as 1339-BS-142-1) was 16.614 and the “Characteristic of the particle size distribution” value (shortened to “Characteristic”) ([4]; listed as 1339-BS-142-1) was “more a unimodal characteristic”.
Work on `O=C(/C=C\n1cnc(-c2cc(C(F)(F)F)cc(C(F)(F)F)c2)n1)NNc1cnccn1` [Lot No. 1339-BS-142-2] yielded a d10 ([4]; listed as 1339-BS-142-2) of 6.088 μm, a d50 ([4]; listed as 1339-BS-142-2) of 14.468 μm and a d90 ([4]; listed as 1339-BS-142-2) of 33.936 μm. The “D[4,3] Volume weighted mean” value ([4]; listed as 1339-BS-142-2) was 20.889 and the “Characteristic” value ([4]; listed as 1339-BS-142-2) was “more a unimodal characteristic”.
`O=C(/C=C\n1cnc(-c2cc(C(F)(F)F)cc(C(F)(F)F)c2)n1)NNc1cnccn1` [Lot No. 1341-AK-109-2] showed a d10 ([4]; listed as 1341-AK-109-2) of 2.815 μm, a d50 ([4]; listed as 1341-AK-109-2) of 10.423 μm and a d90 ([4]; listed as 1341-AK-109-2) of 89.782 μm. For the same compound, the “D[4,3] Volume weighted mean” value ([4]; listed as 1341-AK-109-2) was 32.779 and the “Characteristic” value ([4]; listed as 1341-AK-109-2) was “distinctly bimodal”.
`O=C(/C=C\n1cnc(-c2cc(C(F)(F)F)cc(C(F)(F)F)c2)n1)NNc1cnccn1` [Lot No. 1305365] showed a d10 ([4]; listed as 1305365) of 4.905 μm, a d50 ([4]; listed as 1305365) of 14.268 μm and a d90 ([4]; listed as 1305365) of 75.098 μm. The “D[4,3] Volume weighted mean” value ([4]; listed as 1305365) was 34.740.
Work on `O=C(/C=C\n1cnc(-c2cc(C(F)(F)F)cc(C(F)(F)F)c2)n1)NNc1cnccn1` [Lot No. 1405463] yielded a d10 ([4]; listed as 1405463) of 12.062 μm, a d50 ([4]; listed as 1405463) of 27.653 μm and a d90 ([4]; listed as 1405463) of 64.876 μm. The “D[4,3] Volume weighted mean” value ([4]; listed as 1405463) was 33.740.
In the case of `O=C(/C=C\n1cnc(-c2cc(C(F)(F)F)cc(C(F)(F)F)c2)n1)NNc1cnccn1` [Lot No. PC-14-005], the Minor tertiary mode [4] is reported as “approximately 400 μm”, the d10 ([4]; listed as PC-14-005) is reported as 6.363 μm and the d50 ([4]; listed as PC-14-005) is reported as 18.345 μm. For the same compound, the d90 ([4]; listed as PC-14-005) was 86.906 μm and the “D[4,3] Volume weighted mean” value ([4]; listed as PC-14-005) was 36.720.
With `O=C(/C=C\n1cnc(-c2cc(C(F)(F)F)cc(C(F)(F)F)c2)n1)NNc1cnccn1` [Lot No. PC-14-008] the d10 ([4]; listed as PC-14-008) was 7.658 μm, the d50 ([4]; listed as PC-14-008) was 18.290 μm and the d90 ([4]; listed as PC-14-008) was 42.616 μm. For the same compound, the “D[4,3] Volume weighted mean” value ([4]; listed as PC-14-008) was 22.451 and the “Characteristic” value ([4]; listed as PC-14-008) was “more a unimodal characteristic”.
For `O=C(/C=C\n1cnc(-c2cc(C(F)(F)F)cc(C(F)(F)F)c2)n1)NNc1cnccn1` [Lot No. PC-14-009], the d10 ([4]; listed as PC-14-009) was 9.665 μm, the d50 ([4]; listed as PC-14-009) was 24.406 μm and the d90 ([4]; listed as PC-14-009) was 68.445 μm. For the same compound, the “D[4,3] Volume weighted mean” value ([4]; listed as PC-14-009) was 32.557 and the “Characteristic” value ([4]; listed as PC-14-009) was “more a unimodal characteristic”.
For `O=C(/C=C\n1cnc(-c2cc(C(F)(F)F)cc(C(F)(F)F)c2)n1)NNc1cnccn1` [Selinexor, (Z)-3-(3-(3,5-bis(trifluoromethyl)phenyl)-1H-1,2,4-triazol-1-yl)-N′-(pyrazin-2-yl)acrylohydrazide], the Solubility ([5]; 20% MeCN:80% Water, volumes of solvent) was “Not dissolved in 100 v”, the Solubility ([5]; 40% MeCN:60% Water, volumes of solvent) was “Not dissolved in 100 v” and the Solubility ([5]; 60% MeCN:40% Water, volumes of solvent) was “Dissolved in 50 v”. The Solubility ([5]; 80% MeCN:20% Water, volumes of solvent) was “Dissolved in 30 v”, the Solubility ([5]; 90% MeCN:10% Water, volumes of solvent) was “Dissolved in 30 v” and the Solubility ([5]; Acetonitrile, volumes of solvent (1 volume in μL = sample mg), assessed at 50° C. and RT) was “Dissolved in 70 v”. The “Solubility (visual)” value ([5]; IPA:water mixtures having up to 60% water) was “soluble”, the “Solubility (visual)” value ([5]; acetonitrile:water mixtures having up to 40% water) was “soluble” and the “Solubility (visual)” value ([5]; heptane, 1,2-dichloroethane, toluene, cumene, diisopropylether, water and isooctane, 5 to 100 volumes) was “not soluble”. For the same compound, the “Share of the solvent systems investigated in which soluble” value ([5]; thirty solvents and solvent mixtures, 50° C./RT) was “about 60 % of the solvent systems investigated”.
